From patent US20110319352A1, “Compounds That Bind Oxysterol Binding Proteins, and Methods of Use Thereof” (President and Fellows of Harvard College, priority 2008, published 2011)

How the values were obtained:
[1] = test system: pERK1/2 in HCT-116 cells; test: Western blot of pERK1/2; format: cell-based; details: cephalostatin 1 50 nM, 25-OHC 20 μM 12 h
Method: FIG. 21 depicts Western blot and densitometry analysis of pERK1/2 in HCT-116 cells during treatment with 50 nM cephalostatin 1. 25-OHC (20 μM) and okadaic acid (OKA, 10 nM) treatments were for 12 h and 24 h, respectively.
As another test of whether CRAMs perturb a known OSBP function, it was determined whether CRAMs induce changes to the phosphorylation state of ERK1/2. As mentioned above, 25-OHC binds OSBP and causes disruption of a complex between OSBP and the phosphatases HePTP and PP2A. This blocks dephosphorylation of pERK1/2, leading to a persistence of pERK1/2. Opposing this effect is cholesterol, which binds OSBP, inducing formation of the OSBP-HePTP-PP2A ternary complex, causing ERK1/2 dephosphorylation (FIG. 13).

[2] = biological target: T1, ORP4-myc-his (Homo sapiens, UniProt Q969R2); test: competitive binding assay, displacement of [3H]-25-OHC from ORP4; details: 20 nM [3H]-25-OHC, ORP4-myc-his S100 lysate (HEK-293T), 16 h at 4° C.; read-out: Ki, displacing [3H]-25-OHC from ORP4
T1 construct: made in house; host or cells: HEK-293T (crude S100 lysate, not purified)
T1 sequence (Q969R2 whole entry): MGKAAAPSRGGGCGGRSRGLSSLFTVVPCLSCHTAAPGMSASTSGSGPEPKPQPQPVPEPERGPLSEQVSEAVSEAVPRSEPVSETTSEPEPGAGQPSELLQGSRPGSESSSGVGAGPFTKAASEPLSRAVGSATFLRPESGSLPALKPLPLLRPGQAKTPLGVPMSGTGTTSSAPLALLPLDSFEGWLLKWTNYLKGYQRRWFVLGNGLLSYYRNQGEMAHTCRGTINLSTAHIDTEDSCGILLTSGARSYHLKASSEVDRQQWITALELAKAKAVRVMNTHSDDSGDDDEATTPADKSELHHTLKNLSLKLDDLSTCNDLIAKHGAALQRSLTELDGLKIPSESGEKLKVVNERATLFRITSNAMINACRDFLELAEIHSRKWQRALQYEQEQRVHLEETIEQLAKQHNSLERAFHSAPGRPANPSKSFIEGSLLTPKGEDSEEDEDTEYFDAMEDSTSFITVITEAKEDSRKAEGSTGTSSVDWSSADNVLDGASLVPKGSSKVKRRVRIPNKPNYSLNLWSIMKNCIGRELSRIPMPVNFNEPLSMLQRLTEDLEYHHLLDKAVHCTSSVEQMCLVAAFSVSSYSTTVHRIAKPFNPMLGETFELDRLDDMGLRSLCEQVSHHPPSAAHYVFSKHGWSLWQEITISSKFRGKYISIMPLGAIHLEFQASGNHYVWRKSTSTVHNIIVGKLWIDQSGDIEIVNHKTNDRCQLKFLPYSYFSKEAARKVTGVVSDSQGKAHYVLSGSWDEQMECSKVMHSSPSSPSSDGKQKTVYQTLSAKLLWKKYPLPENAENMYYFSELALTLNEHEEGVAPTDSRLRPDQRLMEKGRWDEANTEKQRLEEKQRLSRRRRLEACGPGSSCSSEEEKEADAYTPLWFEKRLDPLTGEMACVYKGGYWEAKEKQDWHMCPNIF
Method: (§1) It has been determined that CRAMs inhibit the binding of radiolabelled 25-OHC ([^3H]-25-OHC) to recombinant OSBP-myc-his and ORP4-myc-his overexpressed in HEK-293T lysate (FIG. 18). It is known that 25-hydroxycholesterol is a high affinity ligand for OSBP and ORP4. Increasing concentrations of CRAMs or OSW-1 analogs were incubated with 20 nM [^3H]-25-OHC in OSBP-myc-his or ORP4-myc-his S100 lysate for 16 h at 4° C. after which unbound sterol was removed using charcoal-dextran and the bound sterol quantified by LCS (liquid scintillation counting).
(§2) These experiments provide evidence that CRAMs are ligands of OSBP and ORP4, and in the case of 1 and 2, they are high affinity ligands.
(§3) To measure the Kis of CRAMs to OSBP and ORP4 reported above, a previously reported dextran-coated charcoal assay was adapted into a 96-well format. […] To solve these limitations a binding SPA (scintillation proximity assay) for OSBP/ORPs (FIG. 26) will be developed.

[3] = test system: HCT-116 p21−/− cells; test: growth inhibition of HCT-116 cells lacking p21 (p21 dependence); format: cell-based
From the text: Values are mean±SD of 3 individual experiments each performed in sextublicate or from a single experiment performed in sextublicate. Values for […] were reported in the literature (see Beutler J A, Shoemaker R H, Johnson T, Boyd M R. “Cytotoxic geranyl stilbenes from Macaranga schweinfurthii,” J. Nat. Prod. 1998, 61(12), 1509-12).
[5] […] This shared p21 differential cytotoxicity supports the idea of a common CRAM mechanism of action and likely similar target. […] However, caution has to be exercised in concluding that compounds found to be selective for p21 deficient HCT-116 cells are truly synthetic lethal with p21. It was recently reported that compounds shown to be hypersensitive to HCT-116 p21^−/− cells was actually due to an overexpression of p53 in that cell line. Subsequent siRNA knockdown of p53 eliminated the apparent p21 synthetic lethality.

[4] = test system: normal lymphocytes; details: cited from earlier work
[5] = test system: OSBP localization in HCT-116 p21+/+ cells; test: OSBP localization by immunofluorescence confocal microscopy; format: cell-based; details: compound exposure 4 h (OSW-1 1 nM)
Method: FIG. 22 depicts OSBP localization in HCT-116 p21^+/+ cells imaged by immunofluorescence confocal microscopy. Immunofluorescence was used to image OSBP and the trans-Golgi protein p230 after compound exposure for 4 h. […] was labeled with Hoescht 33342.
As another way to investigate how CRAMs may affect OSBP, immunofluorescence (IF) experiments were performed in HCT-116 p21^+/+ cells to determine whether OSBP localization was altered upon treatment with different CRAMs. In untreated cells, OSBP resides largely at ER/cytoplasmic sites with a partial localization at the Golgi (FIG. 22A).
This translocation has been reported many times in the literature as an effect of 25-OHC on OSBP. Treatment of cells with OSW-1 at 1 nM for 4 h caused a dramatic and unprecedented effect on OSBP localization (FIG. 22C). […] In this case p230 has been dispersed (see […]). The translocation of OSBP induced by 2 is distinct from that of 25-OHC. […] They also reveal that the effects on OSBP translocation by 1 and 2 are distinct from 25-OHC.

[6] = biological target: T2, recombinant OSBP-myc-his (Homo sapiens, UniProt P22059); test: competitive binding assay, displacement of [3H]-25-OHC from OSBP (charcoal-dextran, liquid scintillation counting); details: 20 nM [3H]-25-OHC, OSBP-myc-his S100 lysate (HEK-293T), 16 h at 4° C.; read-out: Ki, displacing OSBP-bound [3H]-25-OHC
T2 construct: made in house; host or cells: HEK-293T (crude S100 lysate, not purified)
T2 sequence (P22059 1-807): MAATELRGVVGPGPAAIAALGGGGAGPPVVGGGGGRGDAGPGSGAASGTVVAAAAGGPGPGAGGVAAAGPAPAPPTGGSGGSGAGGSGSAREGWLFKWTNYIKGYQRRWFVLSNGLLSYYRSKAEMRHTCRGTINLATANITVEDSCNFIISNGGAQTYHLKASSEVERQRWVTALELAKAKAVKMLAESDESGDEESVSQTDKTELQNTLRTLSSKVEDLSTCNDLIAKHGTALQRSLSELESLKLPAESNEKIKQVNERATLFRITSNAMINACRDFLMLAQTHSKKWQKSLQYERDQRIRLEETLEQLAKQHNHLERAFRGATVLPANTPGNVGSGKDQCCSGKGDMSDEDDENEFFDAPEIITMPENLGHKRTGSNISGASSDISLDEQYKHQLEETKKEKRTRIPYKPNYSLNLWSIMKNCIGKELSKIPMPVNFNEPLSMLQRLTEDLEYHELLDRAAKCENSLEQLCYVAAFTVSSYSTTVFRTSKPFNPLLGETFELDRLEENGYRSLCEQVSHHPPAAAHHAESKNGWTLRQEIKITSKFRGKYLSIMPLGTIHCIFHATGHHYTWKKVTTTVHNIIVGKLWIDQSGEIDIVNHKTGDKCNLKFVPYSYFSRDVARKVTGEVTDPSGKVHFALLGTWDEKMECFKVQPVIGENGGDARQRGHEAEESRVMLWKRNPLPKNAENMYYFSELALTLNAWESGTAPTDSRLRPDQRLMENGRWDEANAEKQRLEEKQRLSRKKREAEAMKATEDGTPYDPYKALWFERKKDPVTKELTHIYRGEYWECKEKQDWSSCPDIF
Method: as §1, §2, §3

With COc1ccc(C(=O)O[C@H]2[C@H](O[C@@H]3[C@@H](OC(C)=O)[C@H](O[C@H]4C[C@H]5[C@@H]6CC=C7C[C@@H](O)CC[C@]7(C)[C@H]6CC[C@]5(C)[C@@]4(O)[C@H](C)C(=O)CCC(C)C)OC[C@@H]3O)OC[C@@H](O)[C@@H]2O)cc1 [OSW-1] the pERK1/2 levels [1] was “increase in pERK1/2 comparable to cephalostatin 1”, the Ki [2] was 32 nM and the “differential GI50, HCT-116 p21−/− versus p21+/+” value ([3]; 48 h (FIG. 14)) was 72 fold. For the same molecule, the “dependence of growth inhibition on p21 status” value ([3]; HCT-116 p21−/− versus p21+/+) was “selectively growth inhibitory to p21-deficient cells”, the GI50 [4] was 1.73 nM and the “effect on OSBP localization” value [5] was “OSBP to shift from the cytoplasm to a tight cis/medial Golgi site”. For the same molecule, the Ki [6] was 21 nM.
